Data taken from patent US20220000871A1, “METHODS AND COMPOSITIONS FOR TREATING NEURODEGENERATIVE DISEASES USING MODULATORS OF PHOSPHOGLYCERATE KINASE 1 (PGK1) ACTIVITY” (UNIVERSITY OF IOWA RESEARCH FOUNDATION, priority 2019, published 2022).

Experiments:
patients with PD = test: Analysis of the PPMI database (MDS-UPDRS Part 3 motor progression); type: in vivo, human; conditions: for rate of motor function decline / progression of motor disability: PPMI database, vs controls; for MDS-UPDRS Part 3 Slope of change/month, mean ± S.E.: PPMI, male PD patients, baseline to ~1 year
Description: FIG. 7. TZ and related drugs slow progression of motor defects for patients with PD enrolled in the PPMI database. MDS-UPDRS Part 3 (motor) scores of PD patients in the PPMI database. Patients were taking TZ/DZ/AZ (blue, N=13), tamsulosin (green, N=24), or neither (red, N=269). Data are scores at entry into PPMI through ˜1 year and include all measures between those times. All patients taking these drugs were males prescribed TZ/DZ/AZ or tamsulosin without breaks for benign prostatic hyperplasia or undefined urological problems. Lines are plotted from linear mixed effect regression analyses. By maximum likelihood estimation, TZ/DZ/AZ differed from controls (P=0.012).
FIG. 18. UPDRS scores for 13 patients with PD taking TZ/DZ/AZ. Each set of data points and lines indicates an individual patient. Bold line and shading indicate the linear regression line and 95% confidence intervals for the 13 patients. See legend of FIG. 7 for more information.
We analyzed data from the PPMI database (21) for patients taking TZ alone, TZ/DZ/AZ, or tamsulosin. We tested if these drugs influenced the rate of motor progression as measured by part III of the Movement Disorder Society's Unified Parkinson's Disease Rating Scale ([…]), which is a metric of motor disability in Parkinson's disease (22). For this analysis, only participants who were using TZ/DZ/AZ or tamsulosin at their baseline PPMI visit were included in the drug groups. PPMI protocol dictates that the fourth visit should occur approximately one year after the baseline visit; accordingly, any visit that occurred between the baseline visit and the fourth PPMI visit were included. Participants also had to have more than one visit to be included. Of the 13 participants in the TZ/DZ/AZ group, 11 were taking the medication-of-interest without breaks until their fourth visit. One participant was taking DZ at the time of their baseline visit, but discontinued within 30 days of their baseline visit. That participant was only considered to be using DZ during their first and second visits. Another participant was using AZ at their baseline visit and for approximately 5 months after that. This participant was considered to be taking AZ during their first and second visits. If these two participants were excluded from the analysis and only participants who were taking the medication-of-interest without breaks in therapy were included, the results change only marginally. The TZ/DZ/AZ group (n=11) has a slope of change of 0.02±0.21 compared to 0.53±0.05 in the control group (n=269, p=0.015). […]
Only MDS-UPDRS readings that were obtained when the participants were not yet taking a PD medication or were in the practically defined OFF state (at least 6 hours after the last dose of levodopa or any other anti-PD medication) were utilized for this analysis. […]

[1] = system: M17 human neuroblastoma cells; test: Glycolysis and mitochondrial function in M17 cells
Description: Cells were incubated with mild hypoxia for 12 hr before study. Cells were cultured in a sealed chamber (Stemcell Technologies Vancouver, Canada) that was flushed with a humidified gas mixture composed of 5% 02, 5% carbon dioxide (CO2), and 90% nitrogen (N2) for 12 hr. […] Assays of ATP, pyruvate, and citrate synthase activities (CS) were performed according to the manufacturer's instructions.
A Seahorse XV analyzer (XF^e-24, Seahorse Bioscience, Billerica, Mass., USA) was used to measure the oxygen consumption rate (OCR) and the extracellular acidification rate (ECAR) as previously described (18). The M17 cells and iPS cells were seeded in XF^e 24-well plates (Seahorse Bioscience), while the plates used for iPS cells were poly-D-lysine pre-coated. Assay medium was prepared by supplementing Seahorse XF^eBaseMedium minimal DMEM (Seahorse Bioscience) with 2 mM L-glutamine for a Glycolysis Stress Test assay or 2 mM L-glutamine, 1 mM pyruvate and 10 mM glucose for a Mito Stress Test assay (Sigma). pH was adjusted to 7.4 at 37° C. Probes (Seahorse Bioscience) were hydrated in the calibrant (Seahorse Bioscience) in a non-CO2 incubator at 37° C. overnight. Cells were washed twice with assay medium and kept in a non-CO2 incubator at 37° C. for 1 hr before analysis. Glucose, oligomycin and 2-deoxy-glucose (2-DG) were pre-loaded in the probe plate for Glycolysis Stress Test, while oligomycin, FCCP and a mixture of rotenone and antimycin A were used for Mito Stress Test.
Citrate synthase (CS) activity, LDH assay and pyruvate level were detected using commercial kits according to the manufacturer's directions. ATP content in animal tissues and M17 cells were detected with the ATP assay kit following the manufacturer's directions.

SMILES | rate of motor function decline / progression of motor disability (patients with PD) | MDS-UPDRS Part 3 Slope of change/month, mean ± S.E. (patients with PD) | glycolysis ([1]; in vitro, 10 μM, 24 hr (ECAR)) | glycolysis and mitochondrial function ([1]; TZ 10 μM, 24 hr)
CCOc1ccccc1OCCN[C@H](C)Cc1ccc(OC)c(S(N)(=O)=O)c1 [tamsulosin] | failed to slow | 0.39 ± 0.14 | does not enhance | –
COc1cc2nc(N3CCN(C(=O)C4CCCO4)CC3)nc(N)c2cc1OC (stereo not drawn) [TZ, terazosin] | slower | 0.01 ± 0.25 | – | enhances
